# Source: patent US20240174695A1, “Spirocycle Containing Bicyclic Heteroaryl Compounds” (Protego Biopharma, Inc., priority 2022, published 2024)
# System: Recombinant amyloidogenic full length light chain protein WIL-FL T46L
# Experiment: Differential Scanning Fluorimetry Assay (thermal shift assay); note: test concentration or dose not given here
# Format: binding
# Settings: Thermal Shift Protein Stability Kit (Biotium), 96-well plates; protein and compounds incubated at RT for 30 min before adding the dye
# In short: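 E. coli-expressed full-length WIL-FL T46L light chain pre-incubated with compound 30 min at RT before dye addition. Tm obtained by curve fitting of the dye thermal-melt signal; value is ΔTm, compound minus vehicle, in °C.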
row,Structure (SMILES),DSF temperature shift: [Tm]compound−[Tm]vehicle
1,COC(=O)c1cc(N2CC3(CN(CC(O)c4nc5c(C)cc(OC[C@H](C)c6ccccc6)cn5n4)C(=O)N3)C2)ccn1 (stereo partly shown) [Compound 137],***** (>2.5° C.=*****)
2,COC(CN1CC2(CCN(c3ccnc(O)c3)CC2)NC1=O)c1nc2c(C)cc(OC[C@H](C)c3ccccc3)cn2n1 (stereo partly shown) [Compound 138],**** (>1.5-2.5° C.=****)
3,COc1ncccc1N1CCC2(CC1)CN(CCc1nc3c(C)cc(OC[C@H](C)c4ccccc4)cn3n1)C(=O)N2 [Compound 139],*** (>1-1.5° C.=***)
4,COc1cccc(N2CCC3(CC2)CN(CC(O)c2nc4c(C)cc(OCC5(c6ccccc6)CC5)cn4n2)C(=O)N3)n1 (stereo not shown) [Compound 140],**** (>1.5-2.5° C.=****)
5,COc1ccc(N2CCC3(CC2)CN(CCc2nc4c(C)cc(OC[C@H](C)c5ccccc5)cn4n2)C(=O)N3)c(C)n1 [Compound 141],** (>0.5-1° C.=**)
6,COc1cc(N2CCC3(CC2)CN(CC(O)c2nc4c(C)cc(OCC5(c6ccccc6)CC5)cn4n2)C(=O)N3)ccn1 (stereo not shown) [Compound 142],***** (>2.5° C.=*****)
7,COc1cc(N2CCC3(CC2)CN(CCc2nc4c(C)cc(OC[C@H](C)c5ccccc5)cn4n2)C(=O)N3)ccn1 [Compound 143],**** (>1.5-2.5° C.=****)
8,C[C@@H](COc1cc(CO)c2nc(C(O)CN3CC4(CN(c5ccnc(O)c5)C4)NC3=O)nn2c1)c1ccccc1 (stereo partly shown) [Compound 144],***** (>2.5° C.=*****)
9,C[C@@H](COc1cc(CO)c2nc(C(O)CN3CC4(CN(c5ccnc(O)c5)C4)OC3=O)nn2c1)c1ccccc1 (stereo partly shown) [Compound 145],***** (>2.5° C.=*****)
10,C[C@]1(c2ccccc2)CCN(c2cc(CO)c3nc(C(O)CN4CC5(CN(c6ccnc(O)c6)C5)NC4=O)nn3c2)C1 (stereo partly shown) [Compound 146],***** (>2.5° C.=*****)
